Measurements as given in patent publication US8211646B1, “Methods of treating ovarian cancer by modulating SnoN” (University of South Florida, priority 2008, dated 2012).

Legend:
Assay type in all cases: cell-based
HSP27 = assay: Western analysis of HSP27; settings: HEY, 18 hours As2O3
Method: Proteins were resolved on an 8%, 12%, or 15% SDS-PAGE gel (as appropriate) and electrophoretically transferred to polyvinyldifluoride (PVDF) membranes. After blocking with 5% (w/v) milk in TBST (Tris-Buffered Saline containing 0.1% Tween-20) for one hour at room temperature, membranes were incubated with primary antibodies (at appropriate dilution) overnight at 4° C., followed by extensive washing and incubation for 1 hour with the appropriate horseradish peroxidase-conjugated secondary antibodies (BioRad, Hercules, Calif.). Blots were washed extensively. A rabbit polyclonal EVI1 antibody was obtained (1:3000 dilution, St. Jude's Children's Hospital, Memphis, Tenn.). SnoN rabbit polyclonal (1:1000 dilution), PML, and p21 SMURF2 rabbit polyclonal (1:500 dilution), MRP1 mouse monoclonal (1:500 dilution) and GAPDH mouse monoclonal (1:250 dilution) antibodies were obtained from Santa Cruz Biotechnology (Santa Cruz, Calif.). TGFβRII rabbit polyclonal (1:1000 dilution) antibody was obtained from Strategic Diagnostics (Newark, Del.). Smad2/3 rabbit polyclonal (1:1000 dilution), Beclin-1 rabbit polyclonal (1:1000 dilution), AKT rabbit polyclonal (1:1000 dilution), TAK1 rabbit polyclonal (1:1000 dilution), PARP rabbit polyclonal (1:1000 dilution), Beclin-1 rabbit polyclonal (1:1000 dilution), caspase-3 rabbit polyclonal (1:1000) which detects the pro-caspase form, and ATG5 rabbit polyclonal (1:1000 dilution), LC3-II rabbit polyclonal (1:1000 dilution) antibodies were obtained from Cell Signaling Technology (Danvers, Mass.). […]
The clinical inhibitors As2O3, geldanamycin (17-AAG) (dissolved in dimethylsulfoxide [DMSO]), and MG132 (dissolved in DMSO) were obtained from Sigma-Aldrich (St. Louis, Mo.), Fisher Scientific (Pittsburgh, Pa.), and Alexis Biochemicals (Farmingdale, N.Y.), respectively. […] After the appropriate incubation time (6 or 18 hours), cell lysates were collected, protein quantified, and SDS-PAGE/western analysis was performed. In addition, for selected studies, RNA was isolated, quantified, and used for qPCR analysis.

T80, HEY and SKOV3 cells = assay: Annexin V-propidium iodide apoptosis assay; settings: As2O3 treatment
Method: For assessment of apoptosis, the Annexin V-propidium iodide staining kit (Calbiochem, San Diego, Calif.) was used according to the manufacturer's protocol. Briefly, cells were treated with As2O3 for 24 hours at which time both the floating and adherent cells (removed by trypsinization) were collected. Cells were resuspended in PBS followed by the addition of annexin V-FITC and propidium iodide. The samples were then analyzed by flow cytometry at the MD Anderson Cancer Center FACS Core Facility. The FITC and the propidium iodide signals were detected at 518 nm with FL1 and at 620 nm with FL2, respectively.

[1] = test system: EVI1 forms (MDS1/EVI1, EVI1, EVI1^Del190-515)
Method: (§1) Proteins were resolved on an 8%, 12%, or 15% SDS-PAGE gel (as appropriate) and electrophoretically transferred to polyvinyldifluoride (PVDF) membranes. After blocking with 5% (w/v) milk in TBST (Tris-Buffered Saline containing 0.1% Tween-20) for one hour at room temperature, membranes were incubated with primary antibodies (at appropriate dilution) overnight at 4° C., followed by extensive washing and incubation for 1 hour with the appropriate horseradish peroxidase-conjugated secondary antibodies (BioRad, Hercules, Calif.). Blots were washed extensively. A rabbit polyclonal EVI1 antibody was obtained (1:3000 dilution, St. Jude's Children's Hospital, Memphis, Tenn.). SnoN rabbit polyclonal (1:1000 dilution), PML, and p21 SMURF2 rabbit polyclonal (1:500 dilution), MRP1 mouse monoclonal (1:500 dilution) and GAPDH mouse monoclonal (1:250 dilution) antibodies were obtained from Santa Cruz Biotechnology (Santa Cruz, Calif.). TGFβRII rabbit polyclonal (1:1000 dilution) antibody was obtained from Strategic Diagnostics (Newark, Del.). Smad2/3 rabbit polyclonal (1:1000 dilution), Beclin-1 rabbit polyclonal (1:1000 dilution), AKT rabbit polyclonal (1:1000 dilution), TAK1 rabbit polyclonal (1:1000 dilution), PARP rabbit polyclonal (1:1000 dilution), Beclin-1 rabbit polyclonal (1:1000 dilution), caspase-3 rabbit polyclonal (1:1000) which detects the pro-caspase form, and ATG5 rabbit polyclonal (1:1000 dilution), LC3-II rabbit polyclonal (1:1000 dilution) antibodies were obtained from Cell Signaling Technology (Danvers, Mass.). The HSP27 mouse monoclonal (1:1000 dilution) antibody was obtained from Stressgen (Ann Arbor, Mich.). Blots were developed using chemiluminescence substrates (Amersham Piscataway, N.J. or BioRad, Hercules, Calif.). Monoclonal PAI-1 antibody was obtained from BD Pharmingen. PSMAD2, total SMAD2/3, p-ERK, p-AKT, and total AKT antibodies were obtained from Cell Signaling Technology. A monoclonal antibody against Arkadia was obtained from Abnova (Taiwan).
(§2) Densitometric analysis was performed using the HP Scanjet 5590 and the Image J program (Image Processing and Analysis in Java, NIH Image Software). Bands were selected and the intensity values were normalized to those for GAPDH. The values are presented as fold-changes relative to control siRNA treated cells.
(§3) The clinical inhibitors As2O3, geldanamycin (17-AAG) (dissolved in dimethylsulfoxide [DMSO]), and MG132 (dissolved in DMSO) were obtained from Sigma-Aldrich (St. Louis, Mo.), Fisher Scientific (Pittsburgh, Pa.), and Alexis Biochemicals (Farmingdale, N.Y.), respectively. N-acetyl-L-cysteine (NAC; dissolved in media) and Bortezomib (PS-341; dissolved in DMSO) were obtained from Fisher Scientific. 3-Methyladenine (3-MA; dissolved in media) was obtained from MP Biomedicals (Solon, Ohio). Tiron (4,5-Dihydroxy-1,3-benzenedisulfonic acid, dissolved in media) was obtained from Fisher Scientific. zVAD-fmk (dissolved in DMSO) and bafilomycin A (dissolved in DMSO) was obtained from Axxora LLC (San Diego, Calif.). Bovine catalase was obtained from Sigma-Aldrich. HBED and Mn TBAP was obtained from ENZO Life Sciences (Farmingdale, N.Y.). Ovarian cells were plated in 6-well plates at 250,000 cells per well and grown in complete medium. The following day, the cells were treated with 5 μM MG132, As2O3 (between 2-50 μM), 17-AAG (between 2-50 μM), NAC (Fisher Scientific, between 25 μM to 1 mM), Tiron (between 25 μM to 1 mM), 3-MA (0.1 mM to 10 mM), or zVAD-fmk (25 μM to 100 μM). For control cells, DMSO (a final concentration of <0.5%) was added to compare appropriately to drugs dissolved in DMSO. After the appropriate incubation time (6 or 18 hours), cell lysates were collected, protein quantified, and SDS-PAGE/western analysis was performed. In addition, for selected studies, RNA was isolated, quantified, and used for qPCR analysis.

SnoN = assay: Western analysis of SnoN protein levels; settings: for concentration at which induction of SnoN occurred: 18 hours
Method: as §1, §2
as §3, with “The following day, the cells were treated with 5 μM MG132, As2O3 (between 2-50 μM), 17-AAG (between 2-50 μM), NAC (Fisher Scientific, between 25 μM to 1 mM), Tiron (between 25 μM to 1 mM), 3-MA (0.1 mM to 10 mM), or zVAD-fmk (25 μM to 100 μM).” left out

[2] = HEY and OVCA429, 18 hours, increasing doses

Arsenic trioxide [As2O3]
HSP27 expression (HSP27): increased
apoptotic percentage (T80, HEY and SKOV3 cells; SKOV3 and HEY): < 20%
apoptotic percentage (T80, HEY and SKOV3 cells; T80 (low expressing EVI1 cell line)): > 80%
EVI1 and EVI1^Del190-515 protein expression ([1]; 5 μM As2O3): reduced
MDS1/EVI1 protein expression ([1]; 5 μM As2O3): remained unchanged
protein levels of EVI1 forms [1, 2]: markedly decreased
SnoN/SkiL protein levels (SnoN; [2]): significantly increased
concentration at which induction of SnoN occurred (SnoN; HEY and SKOV3 cells): > 25 µM
time of As2O3 treatment at which induction of SnoN was seen (SnoN; HEY, time course): 9 h
concentration at which induction of SnoN occurred (SnoN; T80 cells): 10 µM
